Values quoted from earlier work in patent publication US20030083360A1, “Compaction process for manufacture of sodium phenytoin dosage form” (priority 2001, published 2003).
Read-outs that look alike come from different tables or passages of the source.

solubility in water (listed as free-phenytoin) | SMILES | solubility in water
practically insoluble in water | O=C1NC(=O)C(c2ccccc2)(c2ccccc2)N1 [phenytoin, 5,5-diphenyl-2,4-imidazolidinedione] | poor solubility in water
– | O=C1N=C([O-])NC1(c1ccccc1)c1ccccc1.[Na+] [sodium phenytoin] | much more soluble
